# Experimental data: the supplement of paper PMC10307832
# Columns and labels:
# Experiment in all cases: relative viability (nuclei count vs DMSO), 5 days (fraction); higher = more cells survive
# [1] = compound: CC(C)(C)c1cc(NC(=O)Nc2ccc(-c3cn4c(n3)sc3cc(OCCN5CCOCC5)ccc34)cc2)no1 [Quizartinib] + COc1cccc2cc(-c3nc([C@H]4CC[C@H](C(=O)O)CC4)n4ncnc(N)c34)[nH]c12 [OSI-027] (partner 0.5 µM)
# In short: (§1)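 After 5 days of treatment, lung cancer cells in 1536-well plates were fixed and stained in a single step (final 0.05% Triton X-100, 1% formaldehyde, 1 ug/ml Hoechst) and their nuclei counted on 4× images. Treatment had been applied by pin tool the day after seeding as one drug alone or as a fixed anchor-drug dose with five library-drug doses (not always all listed) in √10 steps. Relative viability is the nuclei count of treated wells divided by that of vehicle wells, and values are medians of duplicate plates.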
# [2] = compound: CC(C)(C)c1cc(NC(=O)Nc2ccc(-c3cn4c(n3)sc3cc(OCCN5CCOCC5)ccc34)cc2)no1 [Quizartinib] + Nc1ncn([C@H]2C[C@H](O)[C@@H](CO)O2)c(=O)n1 [Decitabine] (partner 2 µM)
# In short: as §1
# [3] = compound: CC(C)(C)c1cc(NC(=O)Nc2ccc(-c3cn4c(n3)sc3cc(OCCN5CCOCC5)ccc34)cc2)no1 [Quizartinib] + C[C@@H](Oc1cc(-c2cnn(C3CCNCC3)c2)cnc1N)c1c(Cl)ccc(F)c1Cl [Crizotinib] (partner 1 µM)
# In short: as §1
# [4] = compound: COCC[n+]1c2c(n(Cc3cnccn3)c1C)C(=O)c1ccccc1C2=O [YM155] + COc1cccc2cc(-c3nc([C@H]4CC[C@H](C(=O)O)CC4)n4ncnc(N)c34)[nH]c12 [OSI-027] (partner 0.5 µM)
# In short: as §1
Cell Line,relative viability ([1]; first compound 0.001 µM),relative viability ([1]; first compound 0.003162 µM),relative viability ([1]; first compound 0.01 µM),relative viability ([1]; first compound 0.03162 µM),relative viability ([1]; first compound 0.1 µM),relative viability ([2]; first compound 0.001 µM),relative viability ([2]; first compound 0.003162 µM),relative viability ([2]; first compound 0.01 µM),relative viability ([2]; first compound 0.03162 µM),relative viability ([2]; first compound 0.1 µM),relative viability ([3]; first compound 0.001 µM),relative viability ([3]; first compound 0.003162 µM),relative viability ([3]; first compound 0.01 µM),relative viability ([3]; first compound 0.03162 µM),relative viability ([3]; first compound 0.1 µM),relative viability ([4]; first compound 0.002 µM),relative viability ([4]; first compound 0.006325 µM),relative viability ([4]; first compound 0.02 µM),relative viability ([4]; first compound 0.06325 µM)
NCI-H1755,0.591,0.645,0.79,0.793,0.701,0.59,0.676,0.71,0.722,0.734,0.819,0.839,0.95,0.853,0.791,0.716,0.753,0.747,0.705
NCI-H1792,,0.73,0.707,0.589,0.733,0.459,0.502,0.598,0.449,0.577,0.743,0.978,1.04,0.958,0.995,0.743,0.889,0.677,0.83
NCI-H1915,0.602,0.642,0.562,0.683,0.606,0.23,0.252,0.279,0.263,0.267,0.83,0.841,0.905,0.983,0.944,0.585,0.593,0.613,0.574
NCI-H1944,0.407,0.476,0.327,0.395,0.387,0.38,0.389,0.499,0.419,0.399,1.11,1.09,1.15,1.21,1.11,0.364,0.381,0.445,0.485
NCI-H1975,0.682,0.624,0.722,0.673,0.572,0.361,0.368,0.632,0.379,0.358,1.02,0.929,0.922,0.986,1.09,0.596,0.742,0.67,0.541
NCI-H1993,0.487,0.46,0.672,0.621,0.544,0.564,0.673,0.624,0.632,0.615,0.904,0.951,0.916,0.952,0.948,0.563,0.569,0.583,0.522
NCI-H2009,0.546,0.614,0.62,0.664,0.724,0.408,0.295,0.396,0.373,0.443,0.984,1.02,0.994,0.603,1,0.567,0.604,0.647,0.382
NCI-H2023,0.363,0.469,0.367,,0.355,0.22,0.198,0.266,0.157,0.214,0.648,0.57,0.799,0.246,0.543,0.442,0.455,0.403,0.195
NCI-H2085,0.784,0.648,0.662,0.778,0.525,0.521,0.536,0.58,0.544,0.583,0.745,0.795,0.998,0.833,0.836,0.742,0.783,0.809,0.421
NCI-H2087,,0.583,0.486,0.514,0.496,0.257,0.238,0.332,0.249,0.287,0.717,0.685,0.883,0.767,0.863,0.492,0.567,0.715,0.618
NCI-H2126,0.66,0.753,0.671,0.621,0.693,0.623,0.519,0.693,0.557,0.592,0.816,0.992,1.12,0.962,1.07,0.645,0.714,0.761,0.727
NCI-H2170,0.695,0.659,0.825,0.774,0.816,0.424,0.466,0.468,0.578,0.44,1.15,1.11,1.17,1.2,1.19,0.698,0.785,0.695,0.74
NCI-H2347,0.234,0.434,0.365,0.377,0.516,0.578,0.586,0.65,0.619,0.59,0.719,0.788,0.704,0.585,0.762,0.371,0.504,0.421,0.421
NCI-H2405,0.653,0.702,0.736,0.644,0.626,0.723,0.72,0.789,0.737,0.87,0.791,0.89,0.946,0.803,0.925,0.625,0.613,0.616,0.465
NCI-H3122,,0.947,1.08,,0.877,0.382,0.354,0.524,0.459,0.417,0.268,0.253,0.304,0.279,0.26,0.995,1,1.05,0.715
PC-3 [JPC-3],0.692,0.747,0.782,0.757,0.698,0.837,0.843,0.841,0.862,0.831,0.978,0.961,1.01,0.955,0.955,0.784,0.783,0.808,0.809
PC-14,0.737,0.754,1,,0.882,0.218,0.198,0.225,0.144,0.324,0.839,0.917,1.07,0.814,0.818,0.788,0.901,0.829,0.371
